These results are taken from paper PMC6402191 (Clinical and Translational Science, 2017).

For data set [1], the target named is T1, OAT3 (Homo sapiens, UniProt Q8TCC7).
T1 sequence (Q8TCC7 1-542): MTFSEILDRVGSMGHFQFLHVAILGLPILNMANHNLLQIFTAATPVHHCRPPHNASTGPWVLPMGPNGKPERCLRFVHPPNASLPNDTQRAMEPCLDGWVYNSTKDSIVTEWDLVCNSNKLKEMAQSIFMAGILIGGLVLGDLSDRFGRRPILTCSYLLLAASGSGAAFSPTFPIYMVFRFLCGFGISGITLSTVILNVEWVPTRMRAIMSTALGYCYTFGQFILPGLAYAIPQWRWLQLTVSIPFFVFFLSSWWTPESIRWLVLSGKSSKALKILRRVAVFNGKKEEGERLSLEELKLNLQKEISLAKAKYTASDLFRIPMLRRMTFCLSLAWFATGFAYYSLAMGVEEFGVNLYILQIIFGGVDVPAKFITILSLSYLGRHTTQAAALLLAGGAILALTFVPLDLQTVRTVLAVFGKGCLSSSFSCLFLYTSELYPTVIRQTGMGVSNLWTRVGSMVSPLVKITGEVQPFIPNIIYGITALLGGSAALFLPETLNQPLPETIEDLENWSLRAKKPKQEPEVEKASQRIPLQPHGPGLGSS
Briefly: Uptake of baricitinib into OAT3-transfected HEK-PEAK cells. In kind it is in vitro ADME.

In data set [2] the target is T2, BCRP (Homo sapiens, UniProt Q9UNQ0).
T2 sequence (Q9UNQ0 1-655): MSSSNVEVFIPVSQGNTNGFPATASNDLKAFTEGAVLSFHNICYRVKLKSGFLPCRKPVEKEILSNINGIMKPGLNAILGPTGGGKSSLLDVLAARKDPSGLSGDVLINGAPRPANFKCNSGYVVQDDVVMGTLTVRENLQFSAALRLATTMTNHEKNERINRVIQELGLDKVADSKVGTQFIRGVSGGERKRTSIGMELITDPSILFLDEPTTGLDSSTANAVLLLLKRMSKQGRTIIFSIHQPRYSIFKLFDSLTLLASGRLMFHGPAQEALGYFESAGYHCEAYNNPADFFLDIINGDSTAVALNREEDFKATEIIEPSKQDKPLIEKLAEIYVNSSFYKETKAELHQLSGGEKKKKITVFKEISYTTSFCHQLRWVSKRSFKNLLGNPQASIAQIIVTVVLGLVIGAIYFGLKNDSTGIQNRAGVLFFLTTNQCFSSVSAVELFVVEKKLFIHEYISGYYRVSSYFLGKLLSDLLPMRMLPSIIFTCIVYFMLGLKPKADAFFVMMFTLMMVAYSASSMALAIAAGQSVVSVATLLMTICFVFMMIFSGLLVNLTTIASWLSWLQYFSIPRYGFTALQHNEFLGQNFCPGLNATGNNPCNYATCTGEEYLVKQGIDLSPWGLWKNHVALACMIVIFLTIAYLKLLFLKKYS
Briefly: Bidirectional transport of baricitinib in MDCK-BCRP cells. In kind it is in vitro ADME.

The target of data set [3] is T3, OATP1B3 (Homo sapiens, UniProt Q9NPD5).
T3 sequence (Q9NPD5 1-702): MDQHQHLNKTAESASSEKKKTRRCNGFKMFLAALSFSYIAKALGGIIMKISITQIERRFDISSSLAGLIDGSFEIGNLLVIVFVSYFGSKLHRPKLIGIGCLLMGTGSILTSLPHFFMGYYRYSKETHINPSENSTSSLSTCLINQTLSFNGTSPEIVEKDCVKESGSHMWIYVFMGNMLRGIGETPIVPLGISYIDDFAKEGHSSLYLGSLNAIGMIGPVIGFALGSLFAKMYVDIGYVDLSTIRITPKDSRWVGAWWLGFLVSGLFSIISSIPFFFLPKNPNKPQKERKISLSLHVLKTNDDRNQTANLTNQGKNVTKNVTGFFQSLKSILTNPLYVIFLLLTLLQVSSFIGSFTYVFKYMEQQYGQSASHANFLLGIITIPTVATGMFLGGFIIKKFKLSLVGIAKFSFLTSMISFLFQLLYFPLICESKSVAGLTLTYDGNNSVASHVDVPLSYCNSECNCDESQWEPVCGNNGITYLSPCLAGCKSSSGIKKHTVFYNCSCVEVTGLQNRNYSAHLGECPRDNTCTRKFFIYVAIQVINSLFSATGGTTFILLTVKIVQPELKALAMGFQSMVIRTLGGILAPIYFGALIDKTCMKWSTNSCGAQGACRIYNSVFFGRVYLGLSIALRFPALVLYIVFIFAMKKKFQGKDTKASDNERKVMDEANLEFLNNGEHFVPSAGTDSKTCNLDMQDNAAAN
Put plainly: Baricitinib substrate study in OATP1B3-transfected HEK-PEAK cells. In kind it is in vitro ADME.

The target of data set [4] is T4, MATE1 (Homo sapiens, UniProt Q96FL8).
T4 sequence (Q96FL8 1-570): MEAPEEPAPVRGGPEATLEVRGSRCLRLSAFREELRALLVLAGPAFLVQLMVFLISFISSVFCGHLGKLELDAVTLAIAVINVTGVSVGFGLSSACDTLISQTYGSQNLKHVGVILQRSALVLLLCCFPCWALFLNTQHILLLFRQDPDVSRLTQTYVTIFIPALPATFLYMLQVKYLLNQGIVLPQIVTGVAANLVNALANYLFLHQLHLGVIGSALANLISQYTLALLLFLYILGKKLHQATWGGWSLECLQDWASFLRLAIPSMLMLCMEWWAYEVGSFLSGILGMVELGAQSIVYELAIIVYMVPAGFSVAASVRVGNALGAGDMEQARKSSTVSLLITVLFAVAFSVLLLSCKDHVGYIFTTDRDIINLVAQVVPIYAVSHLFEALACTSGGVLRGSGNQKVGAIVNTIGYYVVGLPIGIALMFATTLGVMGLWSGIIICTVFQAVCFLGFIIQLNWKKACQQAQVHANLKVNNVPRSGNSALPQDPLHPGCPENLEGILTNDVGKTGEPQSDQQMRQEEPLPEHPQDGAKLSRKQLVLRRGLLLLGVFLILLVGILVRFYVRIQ
Briefly: Baricitinib substrate study in MATE1-transfected HEK cells. The format is in vitro ADME.

Data set [5] in a line: Physicochemical input parameters.
Data set [6] is described as follows: Plasma protein binding. In kind it is in vitro ADME. To be noted: human.
The conditions of data set [7]: cited from earlier work.

One may read the Papp A→B as how fast a substance crosses the layer from the apical side. As a reminder, the Papp B→A is the apparent permeability from the basolateral to the apical side of a cell layer. Broadly, the pKa is the negative logarithm of the acid dissociation constant. A lower pKa goes with a stronger acid or weaker base. The term fraction unbound denotes free concentration divided by total concentration. Lower therefore signals extensive binding.

Where “and” joins values, the source holds several entries; their conditions need not be identical. Equal entries are not always repeated.

`CCS(=O)(=O)N1CC(CC#N)(n2cc(-c3ncnc4[nH]ccc34)cn2)C1` [Baricitinib]: in data set [1], the OAT3 substrate entry is reported as “substrate of OAT3”. Besides, the “Uptake into OAT3-transfected cells relative to control cells” value in data set [1] (1-min incubation) is recorded as “approximately double”. For the same compound, in data set [1] (PBPK input), the “OAT3 Vmax” value was 70.76 pmol/min/10^6 cells. In addition, the “OAT3 Vmax” value in data set [1] (average of two experiments) worked out at 176.9 pmol/min/mg protein. The “OAT3 Vmax (individual experiments)” value in data set [1] (each of two separate experiments) was 164.3 ± 7.97 pmol/min/mg protein and 189.5 ± 27.10 pmol/min/mg protein. Besides, the BCRP substrate entry in data set [2] was “substrate of BCRP”. In addition, in data set [2] (dog), the Papp A→B at 5 µM came to 0.83 ×10⁻⁶ cm/s and the Papp B→A at 5 µM amounted to 10.1 ×10⁻⁶ cm/s. Also, the OATP1B3 substrate entry in data set [3] was “not a substrate”. Further, in data set [4], the MATE1 substrate result is “not a substrate”. This compound also gave a pKa in data set [5] of 4. Also, in data set [6], the fraction unbound came out at 0.5. In data set [7], the “eliminated unchanged in urine” value is listed as 70 % of dose and the renal clearance is listed as about 11 L/h. In data set [7] (single 600 mg dose of cyclosporine), the “decrease in renal secretory clearance with cyclosporine” value is reported as 30%.
